Source: patent US11124516B2, “Pyrrolo[1,2-A]pyrimidinyl carboxamide compounds and their use in the treatment of medical disorders” (Bial—Biotech Investments, Inc., priority 2016, dated 2021)
≈ marks a conversion by molar mass, not a printed value.

What was measured:
[1] = Compound solubility in water; assay type: physicochemical
[2] = target: T1, glucocerebrosidase (Gcase) (Homo sapiens, UniProt P04062); assay: Glucocerebrosidase (Gcase) activation assay, 4-methylumbelliferyl-beta-D-glucopyranoside substrate, fluorescence; assay type: biochemical; settings: 10 nM GCase, 100 nM saposin C; for activation at 0.1 µM / activation at 1 µM: 0.25 h; for activation at 0.1 µM: pH 4.7, test compound at 0.1 μM, read-out: Percent Gcase Activation 0.1 μM Test Compound; for activation at 1 µM: pH 4.7, test compound at 1.0 μM, read-out: Percent Gcase Activation 1 μM Test Compound
T1 sequence (P04062 40-536): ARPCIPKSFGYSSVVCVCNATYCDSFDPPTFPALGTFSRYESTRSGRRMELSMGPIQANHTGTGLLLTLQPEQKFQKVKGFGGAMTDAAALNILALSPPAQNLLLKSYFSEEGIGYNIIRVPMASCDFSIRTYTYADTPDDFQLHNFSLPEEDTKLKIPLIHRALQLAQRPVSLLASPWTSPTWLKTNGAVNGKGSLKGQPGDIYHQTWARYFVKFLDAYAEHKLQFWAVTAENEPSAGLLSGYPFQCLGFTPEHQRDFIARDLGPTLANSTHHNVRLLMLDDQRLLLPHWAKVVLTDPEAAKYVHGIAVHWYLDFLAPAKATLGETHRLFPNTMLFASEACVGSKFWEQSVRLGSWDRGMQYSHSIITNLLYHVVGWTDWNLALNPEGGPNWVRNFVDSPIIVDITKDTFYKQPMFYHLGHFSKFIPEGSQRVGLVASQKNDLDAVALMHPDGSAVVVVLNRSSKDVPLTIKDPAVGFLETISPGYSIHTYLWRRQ
Procedure: The ability of exemplary compounds to activate glucocerebrosidase (Gcase) was measured.
A 484 μL aliquot of a 1.0 mg/mL solution of phosphatidylserine (PS) (Sigma P7769) in chloroform was evaporated under a stream of nitrogen for 1 hour. The lipid film was dissolved over 4 minutes of vigorous vortexing in 40 mL of 176 mM K2HPO4/50 mM citric acid (pH 4.7) containing 7.5 μL of triton X-100, resulting in a mixed micellar preparation with a composition of 0.32 mM triton and 0.37 mol % PS. 4-Methylumbelliferyl-beta-D-glucopyranoside (ACROS-337025000) was dissolved in the micellar solution to a final concentration of 2 mM for use as the reaction substrate.
Test compounds were diluted to the desired concentrations with dimethylsulfoxide (DMSO) from 10 mM stocks, and 0.41 μL of the DMSO compound mixture was added to 100 μL of micellar solution containing 10 nM GCase and 100 nM saposin C (Enzo ALX-201-262-C050). Pre-incubation was allowed to occur for 30 minutes at room temperature, after which the reaction was initiated by combining 25 μL of substrate solution with 25 μL of compound/GCase/saposin mixture. The reaction proceeded for 15 minutes at room temperature and was stopped by adding 150 μL of 1M glycine, pH 12.5. The endpoint of the reaction was monitored by measuring fluorescence intensity (excitation: 365 nm; emission: 440 nm) on a SpectraMax i3 instrument (Molecular Devices). Test compounds were screened at 1.0 and 0.1 μM final concentration, and subsequent 8-point dose response curves were obtained using 3-fold dilutions from a maximum final concentration of 5 μM.
For experiments in which the test compound was used at a concentration of 1.0 μM, the symbol “+” indicates less than 30% Gcase activation; the symbol “++” indicates Gcase activation in the range of 30% up to 60%; and the symbol “+++” indicates Gcase activation greater than 60%. For experiments in which the test compound was used at a concentration of 0.1 μM, the symbol “*” indicates less than 10% Gcase activation; the symbol “**” indicates Gcase activation in the range of 10% up to 20%; and the symbol “***” indicates greater than 20% Gcase activation.

solubility [1] [µg/mL]	activation at 0.1 µM [2] [%]	activation at 1 µM [2] [%]	Compound Solubility in Water [1] [µg/mL]	Percent Gcase Activation 0.1 μM Test Compound ([2]; test compound at 0.1 μM, pH 4.7)	Percent Gcase Activation 1 μM Test Compound ([2]; test compound at 1.0 μM, pH 4.7)	SMILES
0.7 (≈ 2.14 µM)	10 to 20	> 60	–	–	–	Cc1cc(C)n2ccc(C(=O)N[C@@H](C)c3cccc(Cl)c3)c2n1 [IV-28]
0.4 (≈ 1.22 µM)	> 20	> 60	–	–	–	Cc1cc(C)n2ccc(C(=O)N[C@@H](C)c3ccc(Cl)cc3)c2n1 [IV-46]
21.6 (≈ 78.5 µM)	10 to 20	> 60	–	–	–	Cc1cc(C)n2c(F)cc(C(=O)N[C@@H](C)C3CC3)c2n1 [IV-17]
2 (≈ 6.15 µM)	> 20	> 60	–	–	–	CCC(NC(=O)c1ccn2c(C)cc(C)nc12)c1ccc(F)cc1 (stereo not drawn) [IV-56]
3 (≈ 9.28 µM)	> 20	> 60	–	–	–	COc1ccccc1[C@H](C)NC(=O)c1ccn2c(C)cc(C)nc12 [IV-27]
–	–	–	4.2	*** (greater than 20% Gcase activation)	+++ (Gcase activation greater than 60%)	Cc1cc(C)n2ccc(C(=O)NC(C)C3CCCCC3)c2n1 (stereo not drawn) [III-63]
12.3 (≈ 32.2 µM)	< 10	30 to 60	–	–	–	Cc1cc(NC2CC3CCC(C2)O3)nc2c(C(=O)NC(C)(C)C3CC3)ccn12 (stereo not drawn) [III-45]
0.9 (≈ 2.37 µM)	10 to 20	> 60	–	–	–	Cc1cc(C(F)F)n2ccc(C(=O)N[C@H]3CC[C@H](OC(C)(C)C)CC3)c2n1 [IV-8]
17.6 (≈ 54.6 µM)	< 10	< 30	–	–	–	CCC(NC(=O)c1ccn2c(C)cc(C)nc12)c1cccc(C)n1 (stereo not drawn) [IV-55]
–	10 to 20	> 60	0.2	–	–	Cc1cc(C)n2ccc(C(=O)NC(C)c3cccc4ccccc34)c2n1 (stereo not drawn) [IV-23]
16.9 (≈ 45.2 µM)	10 to 20	> 60	–	–	–	COCc1cc(C)n2ccc(C(=O)N[C@H]3CC[C@H](OCC(C)C)CC3)c2n1 [IV-4]
1 (≈ 2.98 µM)	> 20	> 60	–	–	–	Cc1cc(C)n2ccc(C(=O)NC(CC(C)C)c3ccccc3)c2n1 (stereo not drawn) [IV-66]
1.1 (≈ 3.77 µM)	> 20	> 60	–	–	–	Cc1cc(Cl)nc2c(C(=O)NC(C)(C)C3CC3)ccn12 [III-11]
0.7 (≈ 2.09 µM)	> 20	> 60	–	–	–	Cc1cc(-c2ccccn2)nc2c(C(=O)NC(C)(C)C3CC3)ccn12 [III-39]
15.9 (≈ 42.6 µM)	> 20	> 60	–	–	–	COCc1cc(C)nc2c(C(=O)N[C@H]3CC[C@H](OCC(C)C)CC3)ccn12 [IV-3]
2.5 (≈ 7.48 µM)	> 20	> 60	–	–	–	Cc1cc(-c2cccnc2)nc2c(C(=O)NC(C)(C)C3CC3)ccn12 [III-41]
0.8 (≈ 2.34 µM)	> 20	> 60	–	–	–	CCC(NC(=O)c1ccn2c(C)cc(C)nc12)c1ccc(Cl)cc1 (stereo not drawn) [IV-59]
0.3 (≈ 0.762 µM)	> 20	> 60	–	–	–	Cc1cc(C(F)F)n2ccc(C(=O)N[C@H]3CC[C@H](OCC(C)(C)C)CC3)c2n1 [IV-10]
24.7 (≈ 80.1 µM)	< 10	30 to 60	–	–	–	CCC(NC(=O)c1ccn2c(C)cc(C)nc12)c1cccnc1 (stereo not drawn) [IV-50]
0.1 (≈ 0.296 µM)	< 10	< 30	–	–	–	Cc1c(-c2ccc(F)cc2)cnc2c(C(=O)N[C@@H](C)C3CC3)ccn12 [III-51]
0.8 (≈ 2.17 µM)	10 to 20	> 60	–	–	–	Cc1cc(C)n2ccc(C(=O)NC(C)(c3ccccc3)c3ccccc3)c2n1 [IV-39]
1.9 (≈ 4.67 µM)	> 20	> 60	–	–	–	CCCCO[C@H]1CC[C@H](NC(=O)c2ccn3c(C)cc(-c4cccnc4)nc23)CC1 [III-59]

solubility [1] [µg/mL]	activation at 0.1 µM [2] [%]	activation at 1 µM [2] [%]	Compound Solubility in Water [1] [µg/mL]	Percent Gcase Activation 0.1 μM Test Compound ([2]; test compound at 0.1 μM, pH 4.7)	Percent Gcase Activation 1 μM Test Compound ([2]; test compound at 1.0 μM, pH 4.7)	SMILES
2.1 (≈ 6.22 µM)	> 20	> 60	–	–	–	CCOc1ccccc1C(C)NC(=O)c1ccn2c(C)cc(C)nc12 (stereo not drawn) [IV-78]
1.1 (≈ 3.01 µM)	10 to 20	> 60	–	–	–	CCC(NC(=O)c1ccn2c(C)cc(C)nc12)c1ccc2c(c1)OCCO2 (stereo not drawn) [IV-62]
5.7 (≈ 16.9 µM)	< 10	30 to 60	–	–	–	Cc1cc(C)n2ccc(C(=O)NC(C)c3ccc4c(c3)OCO4)c2n1 (stereo not drawn) [IV-45]
18.5 (≈ 54.5 µM)	< 10	30 to 60	–	–	–	CCC(NC(=O)c1ccn2c(C)cc(C)nc12)c1nc(C2CC2)no1 (stereo not drawn) [IV-58]
1.4 (≈ 3.72 µM)	10 to 20	> 60	–	–	–	Cc1cc(N2CCC(F)(F)CC2)nc2c(C(=O)NC(C)(C)C3CC3)ccn12 [III-44]
21.4 (≈ 79.5 µM)	10 to 20	> 60	–	–	–	Cc1cc(C)n2ccc(C(=O)NC3(C4CC4)CC3)c2n1 [III-22]
0.1 (≈ 0.296 µM)	> 20	> 60	–	–	–	Cc1cc(-c2ccc(F)cc2)nc2c(C(=O)N[C@@H](C)C3CC3)ccn12 [III-30]
3.5 (≈ 10.5 µM)	10 to 20	> 60	–	–	–	Cc1cc(-c2ccncc2)nc2c(C(=O)NC(C)(C)C3CC3)ccn12 [III-40]
8.6 (≈ 31.7 µM)	10 to 20	> 60	–	–	–	Cc1cc(C)n2cc(C)c(C(=O)N[C@@H](C)C3CC3)c2n1 [III-27]
2.1 (≈ 5.75 µM)	> 20	> 60	–	–	–	Cc1cc(C)n2ccc(C(=O)NC(C)(C)c3ccc4c(c3)OCCO4)c2n1 [IV-19]
2.6 (≈ 7.44 µM)	> 20	> 60	–	–	–	Cc1cc(C)n2ccc(C(=O)NC(C)c3ccc4c(c3)CC(C)O4)c2n1 (stereo not drawn) [IV-79]
1.3 (≈ 3.09 µM)	> 20	> 60	–	–	–	Cc1cc(-c2cccnc2)nc2c(C(=O)N[C@H]3CC[C@H](OCC(C)(C)C)CC3)ccn12 [III-60]
2.4 (≈ 6.53 µM)	< 10	30 to 60	–	–	–	Cc1cc(C)n2ccc(C(=O)NC3(c4ccc(F)cc4)CCOCC3)c2n1 [III-29]
0.9 (≈ 2.36 µM)	10 to 20	> 60	–	–	–	CO[C@H]1CC[C@H](NC(=O)c2ccn3c(C)cc(-c4ccc(F)cc4)nc23)CC1 [III-48]
11.5 (≈ 40 µM)	10 to 20	> 60	–	–	–	COc1cc(C)n2ccc(C(=O)NC(C)(C)C3CC3)c2n1 [III-13]
10.1 (≈ 28.3 µM)	10 to 20	> 60	–	–	–	Cc1cc(NC2CCOCC2)nc2c(C(=O)NC(C)(C)C3CC3)ccn12 [III-38]
4.9 (≈ 13.8 µM)	10 to 20	> 60	–	–	–	Cc1cc(C)n2ccc(C(=O)NC(C)c3nc4c(s3)CCCC4)c2n1 (stereo not drawn) [IV-64]
2.5 (≈ 6.45 µM)	> 20	> 60	–	–	–	COCc1cc(C)n2ccc(C(=O)N[C@H]3CC[C@H](OCC(C)(C)C)CC3)c2n1 [IV-1]
3 (≈ 8.54 µM)	10 to 20	> 60	–	–	–	COCc1cc(C(F)F)nc2c(C(=O)NC(C)(C)C3CCC3)ccn12 [III-5]
11.6 (≈ 28.5 µM)	10 to 20	> 60	–	–	–	Cc1cc(-c2cccnc2)nc2c(C(=O)N[C@H]3CC[C@H](OC(C)(C)C)CC3)ccn12 [III-56]
17.3 (≈ 51.4 µM)	< 10	30 to 60	–	–	–	Cc1cc(C)n2ccc(C(=O)NC(CC(C)C)c3cccnc3)c2n1 (stereo not drawn) [IV-52]
